The record followed here is PubChem BioAssay AID1845204 (Molecular Pharmacology Branch, DTP, NCI, 2023).

“And” between values parts separate entries of the source, which are not always exact repeats. Equal entries are not always repeated.

For this assay, the system named is HSSY-II tumor spheroid viability. Description: Anticancer human tumor HSSY-II cell line growth inhibition.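 On all read-outs here: spheroids exposed to compounds for seven days before reading.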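 On viability, T/C: percent of DMSO vehicle control viability so 100% = untreated level.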 The note with it: spheroids with HUVEC and MSC; for viability, T/C: stronger effect = lower value. Put shortly:
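Complex tumor spheroids combined malignant cells with endothelial cells and mesenchymal stem cells. DNA-damaging drugs and DNA repair inhibitors were tested alone and in combination, at half-log dilutions down from clinical Cmax (top 10 microM if Cmax unknown), 0.25% DMSO final.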

[1] abbreviates: curve of first compound, second compound 0.003 µM.
Setting [2] is: curve of first compound, second compound 0.00949 µM.
Where [3] appears, read: curve of first compound, second compound 0.03 µM.
The mark [4] stands for this setting: curve of first compound, second compound 0.0949 µM.
Where [5] appears, read: curve of first compound, second compound 0.3 µM.

By IC50 is commonly meant the concentration that gives 50% inhibition. As a reminder, the viability, T/C is the ratio of treated to control. For the compound `CC(C)n1c(=O)n(C)c2cnc3cc(F)c(-c4ccc(OCCCN5CCCCC5)nc4)cc3c21` + CC[C@@]1(O)C(=O)OCc2c1cc1n(c2=O)Cc2cc3c(CN(C)C)c(O)ccc3nc2-1, the IC50 by setting is: under setting [1], less than 31.6 nM; under setting [2], less than 31.6 nM; under setting [3], less than 31.6 nM; under setting [4], less than 31.6 nM; under setting [5], less than 31.6 nM. Moreover, the viability, T/C (second compound 0.003 µM, first compound 0.0316 µM) was 48%; the viability, T/C (second compound 0.003 µM, first compound 0.1 µM) is 45.2%; the viability, T/C (second compound 0.003 µM, first compound 0.316 µM) is 51.9%; the viability, T/C (second compound 0.003 µM, first compound 1 µM) was 40.6%; the viability, T/C (second compound 0.003 µM, first compound 3.16 µM) is 14%; the viability, T/C (second compound 0.003 µM, first compound 10 µM) is 10.2%. Also, the viability, T/C is 15% (second compound 0.00949 µM, first compound 0.0316 µM); 14.7% (second compound 0.00949 µM, first compound 0.1 µM); 14.3% (second compound 0.00949 µM, first compound 0.316 µM); 13% (second compound 0.00949 µM, first compound 1 µM); 9.79% (second compound 0.00949 µM, first compound 3.16 µM); 7.58% (second compound 0.00949 µM, first compound 10 µM). Moreover, the viability, T/C by setting is: (second compound 0.03 µM, first compound 0.0316 µM) 10.1%; (second compound 0.03 µM, first compound 0.1 µM) 9.85%; (second compound 0.03 µM, first compound 0.316 µM) 9.61%; (second compound 0.03 µM, first compound 1 µM) 7.8%; (second compound 0.03 µM, first compound 3.16 µM) 4.59%; (second compound 0.03 µM, first compound 10 µM) 2.72%. Besides, the viability, T/C (second compound 0.0949 µM, first compound 0.0316 µM) is 9.24%; the viability, T/C (second compound 0.0949 µM, first compound 0.1 µM) is 8.61%; the viability, T/C (second compound 0.0949 µM, first compound 0.316 µM) is 8.35%; the viability, T/C (second compound 0.0949 µM, first compound 1 µM) is 6.09%; the viability, T/C (second compound 0.0949 µM, first compound 3.16 µM) was 4.16%; the viability, T/C (second compound 0.0949 µM, first compound 10 µM) is 2.59%. Moreover, the viability, T/C runs as follows: (second compound 0.3 µM, first compound 0.0316 µM) 6.62%; (second compound 0.3 µM, first compound 0.1 µM) 6.23%; (second compound 0.3 µM, first compound 0.316 µM) 5.88%; (second compound 0.3 µM, first compound 1 µM) 5.84%; (second compound 0.3 µM, first compound 3.16 µM) 4.56%; (second compound 0.3 µM, first compound 10 µM) 3.48%.

On to `COc1cc(C)[nH]c(=O)c1CN1CCc2c(Cl)cc(C(OC)C3COC3)c(Cl)c2C1=O` (stereo unspecified), for which the viability, T/C is 79.4% and 99.8% and 97.9% (compound 0.0316 µM); 115% and 84.8% and 86.5% (compound 0.1 µM); 99.7% and 76.2% and 78.9% (compound 0.316 µM); 93.8% and 63.5% and 68.3% (compound 1 µM); 94.8% and 60.8% and 62.7% (compound 3.16 µM); 91.7% and 62.6% and 64.4% (compound 10 µM). Moreover, the IC50 (curve of compound) was greater than 10000 nM.

With `O=C(c1cc(Cc2n[nH]c(=O)c3ccccc23)ccc1F)N1CCN(C(=O)C2CC2)CC1` + CC[C@@]1(O)C(=O)OCc2c1cc1n(c2=O)Cc2cc3c(CN(C)C)c(O)ccc3nc2-1, the IC50 by setting is: under setting [1], 505 nM; under setting [2], less than 94.9 nM; under setting [3], less than 94.9 nM; under setting [4], less than 94.9 nM; under setting [5], less than 94.9 nM. Moreover, the viability, T/C is 63.4% (second compound 0.003 µM, first compound 0.0949 µM); 56.4% (second compound 0.003 µM, first compound 0.3 µM); 41.4% (second compound 0.003 µM, first compound 0.949 µM); 18.8% (second compound 0.003 µM, first compound 3 µM); 7.55% (second compound 0.003 µM, first compound 9.49 µM); 7.59% (second compound 0.003 µM, first compound 30 µM). Besides, the viability, T/C by setting is: (second compound 0.00949 µM, first compound 0.0949 µM) 14.3%; (second compound 0.00949 µM, first compound 0.3 µM) 11.9%; (second compound 0.00949 µM, first compound 0.949 µM) 10.8%; (second compound 0.00949 µM, first compound 3 µM) 7.16%; (second compound 0.00949 µM, first compound 9.49 µM) 6.35%; (second compound 0.00949 µM, first compound 30 µM) 7%. The viability, T/C (second compound 0.03 µM, first compound 0.0949 µM) was 5.6%; the viability, T/C (second compound 0.03 µM, first compound 0.3 µM) was 5.95%; the viability, T/C (second compound 0.03 µM, first compound 0.949 µM) is 5.27%; the viability, T/C (second compound 0.03 µM, first compound 3 µM) is 6.36%; the viability, T/C (second compound 0.03 µM, first compound 9.49 µM) was 5.82%; the viability, T/C (second compound 0.03 µM, first compound 30 µM) was 6.47%. The viability, T/C is 5.02% (second compound 0.0949 µM, first compound 0.0949 µM); 4.58% (second compound 0.0949 µM, first compound 0.3 µM); 4.8% (second compound 0.0949 µM, first compound 0.949 µM); 4.07% (second compound 0.0949 µM, first compound 3 µM); 4.67% (second compound 0.0949 µM, first compound 9.49 µM); 5.85% (second compound 0.0949 µM, first compound 30 µM). For the same compound, the viability, T/C was 3.79% (second compound 0.3 µM, first compound 0.0949 µM); 4.17% (second compound 0.3 µM, first compound 0.3 µM); 3.66% (second compound 0.3 µM, first compound 0.949 µM); 4.24% (second compound 0.3 µM, first compound 3 µM); 3.48% (second compound 0.3 µM, first compound 9.49 µM); 4.55% (second compound 0.3 µM, first compound 30 µM).

Consider `CC1COCCN1c1cc(-c2ccnn2C)c2ccnc(-c3ccn[nH]3)c2n1` (stereo unspecified), for which the viability, T/C by setting is: (compound 0.0316 µM) 13.6% and 27.8% and 22.3%; (compound 0.1 µM) 6.39% and 6.26% and 6.5%; (compound 0.316 µM) 4.82% and 2.71% and 2.97%; (compound 1 µM) 4.16% and 1.96% and 2.24%; (compound 3.16 µM) 4.41% and 2.11% and 2.4%; (compound 10 µM) 6.25% and 2.76% and 2.66%. Also, the IC50 (curve of compound) was less than 31.6 nM.

`CC(C)n1c(=O)n(C)c2cnc3cc(F)c(-c4ccc(OCCCN5CCCCC5)nc4)cc3c21`: the viability, T/C reads like this: (compound 0.0316 µM) 139% and 106% and 97.2%; (compound 0.1 µM) 129% and 102% and 101%; (compound 0.316 µM) 118% and 97.2% and 96.5%; (compound 1 µM) 126% and 86.8% and 85.9%; (compound 3.16 µM) 113% and 76.4% and 76.1%; (compound 10 µM) 53.6% and 35.9% and 32.6%. The IC50 (curve of compound) is > 10000 nM and 6620 nM and 6220 nM.
